Patent publication US12582617B2, “Methods for treating cancer” (RADIUS PHARMACEUTICALS, INC., priority 2015, dated 2026)
Where a name gives a salt, the structure may show the parent alone.

Assay: Concentration in plasma and intracranial tumor (LC-MS/MS)
Assay type: in vivo
Conditions: athymic nude, mouse, in vivo, 120 mg/kg
Method: The endpoint was defined as a mortality or 3× survival of the control group, whichever comes first. Treatment tolerability was assessed by body weight measurements and frequent observation for clinical signs of treatment-related adverse effects. Animals with weight loss exceeding 30% for one measurement, or exceeding 25% for three measurements, were humanely euthanized and classified as a treatment-related death. Acceptable toxicity was defined as a group-mean body weight loss of less than 20% during the study and not more than one treatment-related death among ten treated animals, or 10%. At the end of study animals were euthanized by terminal cardiac puncture under isoflurane anesthesia.

SMILES: CCNCCc1ccc(CN(CC)c2cc(OC)ccc2[C@@H]2CCc3cc(O)ccc3C2)cc1 [RAD1901, (6R)-6-(2-(N-(4-(2-(ethylamino)ethyl)benzyl)-N-ethylamino)-4-methoxyphenyl)-5,6,7,8-tetrahydronaphthalen-2-ol dihydrochloride]
- concentration in the intracranial tumor: 462 ± 105 ng/g
- concentration in the plasma: 738 ± 471 ng/mL
